{"source": "PubChem BioAssay AID2060345", "about": "(Molecular Pharmacology Branch, DTP, NCI, 2025)", "system": "MALME-3M multicell spheroids, viability", "assay": "Anticancer human tumor MALME-3M cell line growth inhibition [TAK];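 on all read-outs here: spheroids exposed to drugs for seven days before readout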;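 on viability, T/C: 100% = DMSO vehicle control viability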", "details": "for pIC50: curve of first compound; for viability, T/C: stronger effect = lower value", "description": "Combinatorial screen of targeted agents with TAK-243 and ipatasertib in multi-cell type tumor spheroids\nA high-throughput screen of multi-cell type tumor spheroids was designed to identify active combinations of targeted small molecules and TAK-243 or ipatasertib. Complex spheroids include a stromal component modeled by human endothelial cells (HUVEC) and fibroblasts modeled by human mesenchymal stem cells (MSCs). The concentration ranges selected for each drug and investigational agent were based upon clinically achievable concentrations if the clinical Cmax of the agent was known.\nCompounds. The drugs and investigational agents: TAK-243 (785004), ipatasertib (767898), everolimus (733504), selumetinib (741078), bortezomib (756655), trametinib (758246), ixazomib (758254), vemurafenib (761431), dabrafenib (764134), sapanisertib (764658), alpelisib (765974), and copanlisib (816437), were obtained from the National Cancer Institute (NCI) Developmental Therapeutics Program Chemical Repository. The FDA-approved anticancer drug set is available from the NCI Developmental Therapeutics Program. […] The stock solutions were prepared in dimethyl sulfoxide (DMSO, Sigma-Aldrich, St. Louis, MO, cat. D2650) at 800-fold the tested concentration and stored at -70 degrees C prior to their use. All drugs and investigational agents were tested over a range starting from a high concentration at or near the clinical Cmax and decreasing in half-log increments. If the clinical Cmax for an agent had not been determined, the highest concentration tested was 10 microM.\nNCI60 Cell Culture. NCI60 cell lines were obtained from the NCI Developmental Therapeutics Program Tumor Repository. For each lot of cells, the Repository performed Applied Biosystems AmpFLSTR Identifiler testing with PCR amplification to confirm consistency with the published Identifier STR profile for each cell line. Cells were kept in continuous culture for no more than 20 passages. The optimal seeding densities for each of the cell lines at each time point assessed were determined prior to performing the concentration response studies. Briefly, the NCI60 human tumor lines were grown as monolayers in RPMI 1640 medium supplemented with 10% FBS and 2 mmol/L L-glutamine.\nAn additional 2 lines were from the NCI60 cell line panel including melanomas, MALME-3M and SK-MEL-2. Pooled donor human umbilical vein endothelial cells (HUVEC, Lonza, cat. CC-2519) and human mesenchymal stem cells (hMSC, Lonza, cat. PT-2501) were purchased from Lonza (Walkersville, MD).\nPDMR cell lines were grown in complete medium (DC medium): Dulbecco's modified Eagle's medium (DMEM)/F12 supplemented with 5% fetal bovine serum (FBS), 2 mM L-glutamine, 100 U/mL penicillin and 100 µg/ml streptomycin, 0.4 µg/ml hydrocortisone, 10 ng/ml epidermal growth factor (EGF) recombinant human protein, 24 µg/mL adenine, and 0.1 mg/mL primocin. During culture from frozen stock vials, PDMR cells were cultured in the same medium containing 10 µM Y-27632 (see Table 3). The PDCs were cultured in complete DMEM/F12 media without 10 microM Y-27632 dihydrochloride for at least two passages prior to the screen. The pooled donor HUVEC and hMSC were cultured in endothelial cell growth medium 2 (PromoCell, Heidelberg, Germany, cat. C-22011) and mesenchymal stem cell growth medium 2 (PromoCell, cat. C-28009), respectively. For all experiments, HUVEC and hMSC were used at passages </=5.\nFor the pre-screen, cell seeding densities were determined from a titration spanning the range from 5,000 to 313 cells per well. The mct-spheroids including 60% malignant cells, 25% HUVEC and 15% MSC dispensed as a mixture into U-bottom Ultra-Low Attachment 384-well plates (Corning, NY)\nHigh-throughput Drug Combination Screening.\nPrior to their inoculation into 384-well plates, malignant cells, HUVEC, and hMSC were removed from T flasks using TrypLE express (Thermo Fisher Scientific, cat. 12605036) and harvested by centrifugation for 5 min at 233 x g. […]", "note": "pIC50: −log10 of the molar value."}
{"smiles": "CCCS(=O)(=O)Nc1ccc(F)c(C(=O)c2c[nH]c3ncc(-c4ccc(Cl)cc4)cc23)c1F", "note": "+ CC(C)NCC(C(=O)N1CCN(c2ncnc3c2C(C)CC3O)CC1)c1ccc(Cl)cc1", "values": [{"measurement": "pIC50", "setting": "second compound 0.3 µM", "value": "> 6.50"}, {"measurement": "pIC50", "setting": "second compound 0.949 µM", "value": "> 6.50"}, {"measurement": "pIC50", "setting": "second compound 3 µM", "value": "> 6.50"}, {"measurement": "pIC50", "setting": "second compound 9.49 µM", "value": "> 6.50"}, {"measurement": "pIC50", "setting": "second compound 30 µM", "value": "> 6.50"}, {"measurement": "viability, T/C", "setting": "second compound 0.3 µM, first compound 0.316 µM", "value": 29.3, "unit": "%"}, {"measurement": "viability, T/C", "setting": "second compound 0.3 µM, first compound 1 µM", "value": 21.5, "unit": "%"}, {"measurement": "viability, T/C", "setting": "second compound 0.3 µM, first compound 3.16 µM", "value": 23.6, "unit": "%"}, {"measurement": "viability, T/C", "setting": "second compound 0.3 µM, first compound 10 µM", "value": 19.3, "unit": "%"}, {"measurement": "viability, T/C", "setting": "second compound 0.3 µM, first compound 31.6 µM", "value": 0.51, "unit": "%"}, {"measurement": "viability, T/C", "setting": "second compound 0.3 µM, first compound 100 µM", "value": 11.1, "unit": "%"}, {"measurement": "viability, T/C", "setting": "second compound 0.949 µM, first compound 0.316 µM", "value": 31.8, "unit": "%"}, {"measurement": "viability, T/C", "setting": "second compound 0.949 µM, first compound 1 µM", "value": 25.8, "unit": "%"}, {"measurement": "viability, T/C", "setting": "second compound 0.949 µM, first compound 3.16 µM", "value": 23.6, "unit": "%"}, {"measurement": "viability, T/C", "setting": "second compound 0.949 µM, first compound 10 µM", "value": 22.1, "unit": "%"}, {"measurement": "viability, T/C", "setting": "second compound 0.949 µM, first compound 31.6 µM", "value": 2.72, "unit": "%"}, {"measurement": "viability, T/C", "setting": "second compound 0.949 µM, first compound 100 µM", "value": 12.1, "unit": "%"}, {"measurement": "viability, T/C", "setting": "second compound 3 µM, first compound 0.316 µM", "value": 30, "unit": "%"}, {"measurement": "viability, T/C", "setting": "second compound 3 µM, first compound 1 µM", "value": 24.9, "unit": "%"}, {"measurement": "viability, T/C", "setting": "second compound 3 µM, first compound 3.16 µM", "value": 21.4, "unit": "%"}, {"measurement": "viability, T/C", "setting": "second compound 3 µM, first compound 10 µM", "value": 15.9, "unit": "%"}, {"measurement": "viability, T/C", "setting": "second compound 3 µM, first compound 31.6 µM", "value": 1.69, "unit": "%"}, {"measurement": "viability, T/C", "setting": "second compound 3 µM, first compound 100 µM", "value": 3.88, "unit": "%"}, {"measurement": "viability, T/C", "setting": "second compound 9.49 µM, first compound 0.316 µM", "value": 24.8, "unit": "%"}, {"measurement": "viability, T/C", "setting": "second compound 9.49 µM, first compound 1 µM", "value": 20.6, "unit": "%"}, {"measurement": "viability, T/C", "setting": "second compound 9.49 µM, first compound 3.16 µM", "value": 17.9, "unit": "%"}, {"measurement": "viability, T/C", "setting": "second compound 9.49 µM, first compound 10 µM", "value": 10.8, "unit": "%"}, {"measurement": "viability, T/C", "setting": "second compound 9.49 µM, first compound 31.6 µM", "value": 0.89, "unit": "%"}, {"measurement": "viability, T/C", "setting": "second compound 9.49 µM, first compound 100 µM", "value": 1.65, "unit": "%"}, {"measurement": "viability, T/C", "setting": "second compound 30 µM, first compound 0.316 µM", "value": 15.1, "unit": "%"}, {"measurement": "viability, T/C", "setting": "second compound 30 µM, first compound 1 µM", "value": 16.4, "unit": "%"}, {"measurement": "viability, T/C", "setting": "second compound 30 µM, first compound 3.16 µM", "value": 9.92, "unit": "%"}, {"measurement": "viability, T/C", "setting": "second compound 30 µM, first compound 10 µM", "value": 0.89, "unit": "%"}, {"measurement": "viability, T/C", "setting": "second compound 30 µM, first compound 31.6 µM", "value": 0.35, "unit": "%"}, {"measurement": "viability, T/C", "setting": "second compound 30 µM, first compound 100 µM", "value": 0.54, "unit": "%"}]}
